The record followed here is ChEMBL document CHEMBL3351843, “Noncovalent fluorescent probes of human immuno- and constitutive proteasomes” (J Med Chem, 2014).

Calls of active or inactive are those of the source. The calls are words filed in the database; no cut-off is given here.

In series [1] the test system is Proteasome. Nature of the series: Inhibition of PA activity of proteasome in HEK293 cells incubated for 1 hr by proteasome Glo cell-based chemiluminescent assay. Particulars: Homo sapiens, HEK293, 1 h.
Series [2] relates to Proteasome. Nature of the series: Inhibition of trypsin-like activity of proteasome in HEK293 cells incubated for 1 hr by proteasome Glo cell-based chemiluminescent assay. Particulars: Homo sapiens, HEK293, 1 h.
Series [3] in a line: Cytotoxicity against HEK293 cells assessed as cell survival at 5 uM incubated for 1 hr by XTT assay. Particulars: human, read-out: Survival. The series is classed as cell-based. On the technique in general: Tetrazolium assays rely on reduction of a dye to a coloured formazan, in cell work by metabolically active cells.
Series [4] is described as follows: Inhibition of trypsin-like activity of human constitutive 20S proteasome incubated for 15 mins before fluorogenic substrate addition.
Series [5] in a line: Drug uptake in nucleus of HEK293 cells at 5 uM incubated for 1 hr by DAPI staining based confocal microscopy. The series is classed as ADME, cell-based. Particulars: human, hek293, 1 h.
A short description of series [6]: Inhibition of chymotrypsin-like activity of human inducible 20S immunoproteasome incubated for 15 mins before fluorogenic substrate addition.
The nature of series [7]: Inhibition of PA activity of human inducible 20S immunoproteasome incubated for 15 mins before fluorogenic substrate addition.
The nature of series [8]: Inhibition of chymotrypsin-like activity of human constitutive 20S proteasome incubated for 15 mins before fluorogenic substrate addition.
Series [9] in a line: Inhibition of PA activity of human constitutive 20S proteasome incubated for 15 mins before fluorogenic substrate addition.
Series [10] is described as follows: Inhibition of trypsin-like activity of human inducible 20S immunoproteasome incubated for 15 mins before fluorogenic substrate addition.
For series [11], the system named is Proteasome. Nature of the series: Inhibition of chymotrypsin-like activity of proteasome in HEK293 cells incubated for 1 hr by proteasome Glo cell-based chemiluminescent assay. The settings on record: Homo sapiens, HEK293, 1 h.
Series [12] relates to HEK293. Nature of the series: Drug uptake in HEK293 cells at 5 uM incubated for 1 hr by flow cytometry. The series is classed as ADME, cell-based. Particulars: human, hek293, 1 h. Background: Flow cytometry measures light scatter and fluorescence of single cells or particles in a stream.
Series [13] relates to HEK293. Nature of the series: Reversible inhibition of chymotrypsin-like activity of proteasome in HEK293 cells incubated for 1 hr by proteasome Glo cell-based chemiluminescent assay. The settings on record: Homo sapiens.
Series [14] concerns Proteasome. Nature of the series: Reversible inhibition of trypsin-like activity of proteasome in HEK293 cells incubated for 1 hr by proteasome Glo cell-based chemiluminescent assay. The settings on record: Homo sapiens.
Series [15] deals with Proteasome. Nature of the series: Reversible inhibition of PA activity of proteasome in HEK293 cells incubated for 1 hr by proteasome Glo cell-based chemiluminescent assay. Particulars: Homo sapiens.

Regarding `C[C@H](NC(=O)[C@H](Cc1ccc(OCc2ccccc2)cc1)NC(=O)CCCCCNC(=O)CCCCCNC(=O)CCCCCNC(=O)c1ccc(-c2c3ccc(=[N+](C)C)cc-3oc3cc(N(C)C)ccc23)c(C(=O)[O-])c1)C(=O)N[C@@H](C[C@]1(O)C(=O)Nc2ccccc21)C(=O)NCc1ccccc1`, the IC50 (usually the midpoint of a concentration-inhibition curve) in series [1] was determined as 596 nM; in series [2], 515 nM; in series [4], 1280 nM; in [6], 670 nM; in series [7], 740 nM; in series [8], 490 nM. For the same compound, the IC50 in series [9] came to 1370 nM; in series [10], 1730 nM; in [11], 125 nM. Moreover, the viability at 1 h, 5 µM in series [3] is 100%. Besides, the Drug uptake entry in series [5] is on record as “Active”.

Turning to `COC(=O)CCCCCNC(=O)c1ccc(-c2c3ccc(=[N+](C)C)cc-3oc3cc(N(C)C)ccc23)c(C(=O)[O-])c1`, the viability at 1 h, 5 µM in series [3] turned out to be 67.6%. The Drug uptake result in series [12] is listed as “Active”.

In the case of `C[C@H](NC(=O)[C@H](Cc1ccc(OCc2ccccc2)cc1)NC(=O)OC(C)(C)C)C(=O)N[C@@H](C[C@]1(O)C(=O)Nc2ccccc21)C(=O)NCc1ccccc1`, the IC50 in series [4] stood at 7100 nM; in series [6], 2530 nM; in series [7] it was 6160 nM; in series [8], 3200 nM; in series [9] it was 11500 nM; in series [10], 27700 nM.

On to `C[C@H](NC(=O)[C@H](Cc1ccc(OCc2ccccc2)cc1)NC(=O)c1ccc(-c2c3ccc(=O)cc-3oc3cc(O)ccc23)c(C(=O)O)c1)C(=O)N[C@@H](C[C@]1(O)C(=O)Nc2ccccc21)C(=O)NCc1ccccc1`, for which the IC50 in series [4] came to 1930 nM; in series [6], 1490 nM; in series [7], 7060 nM; in [8], 2590 nM; in series [9], 9520 nM; in series [10], 2430 nM.

For the compound `C[C@H](NC(=O)[C@H](Cc1ccc(OCc2ccccc2)cc1)NC(=O)CCCCCNC(=O)c1ccc(-c2c3ccc(=[N+](C)C)cc-3oc3cc(N(C)C)ccc23)c(C(=O)[O-])c1)C(=O)N[C@@H](C[C@]1(O)C(=O)Nc2ccccc21)C(=O)NCc1ccccc1`, the inhibition result in series [13], in series [14] and in series [15] was “Active” each time. Besides, the IC50 in series [1] came to 402 nM; in series [2], 521 nM; in [4], 1240 nM; in series [6], 560 nM; in series [7], 640 nM; in series [8], 480 nM. Besides, the results for the IC50 in series [9], in series [10] and in series [11] were 990 nM, 1750 nM and 65 nM, respectively. For the same compound, the viability at 1 h, 5 µM in series [3] is 78.2%. The Drug uptake entry in [5] was “Active”.

Consider `C[C@H](NC(=O)[C@H](Cc1ccc(OCc2ccccc2)cc1)NC(=O)c1ccc(-c2c3ccc(=[N+](C)C)cc-3oc3cc(N(C)C)ccc23)c(C(=O)[O-])c1)C(=O)N[C@@H](C[C@]1(O)C(=O)Nc2ccccc21)C(=O)NCc1ccccc1`, for which the IC50 in series [1] came to 1120 nM; in [2], 2480 nM; in series [4], 1630 nM; in series [6] it was 420 nM; in series [7] it was 830 nM; in series [8], 430 nM. The IC50 is 1080 nM in series [9], 3530 nM in [10] and 289 nM in [11]. Moreover, the viability at 1 h, 5 µM in series [3] came out at 90.1%. For the same compound, the Drug uptake result in series [12] and in series [5] was “Active” each time.
